Experimental data published in PMC6749450, “Probing the Effects of Pyrimidine Functional Group Switches on Acyclic Fleximer Analogues for Antiviral Activity” (Molecules, 2019).

Assays:
Ebola virus (EBOV) = assay: microbe, parasite or virus in culture; type: cell-based, EBOV-Makona; details: for EC50: Zaire ebolavirus, Huh-7, 72 h, read-out: EC50: effective concentration showing 50% inhibition of virus-expressed ZsGreen fluorescence
coronaviruses = details: cited from earlier work
filoviruses = details: cited from earlier work
flaviviruses = details: ref unpublished results; cited from earlier work

| Compound | EC50 (Ebola virus (EBOV)) [µM] | further results |
| --- | --- | --- |
| Nc1ncc(-c2cn(COCCO)cn2)cn1 [compound 4, 2-((4-(2-Aminopyrimidin-5-yl)-1H-imidazol-1-yl)methoxy)ethan-1-ol] | > 100 | activity against EBOV (in words) (Ebola virus (EBOV)): did not display any activity against EBOV |
| CC(C)C(=O)OCCOCn1cnc(-c2cnc(N)nc2)c1 [4-^iPrAc, 2-((4-(2-Aminopyrimidin-5-yl)-1H-imidazol-1-yl)methoxy)ethyl isobutyrate] | 54 ± 23.7 | – |
| COc1ncncc1-c1cn(COCCOC(=O)C(C)(C)C)cn1 [3-^tBuAc, 2-((4-(4-Methoxypyrimidin-5-yl)-1H-imidazol-1-yl)methoxy)ethyl pivalate] | 51.4 ± 10 | – |
| CC(=O)OCCOCn1cnc(-c2cnc(N)nc2)c1 [4-Ac, 2-((4-(2-Aminopyrimidin-5-yl)-1H-imidazol-1-yl)methoxy)ethyl acetate] | 52.9 ± 28.2 | – |
| CCC(=O)OCCOCn1cnc(-c2cnc(N)nc2)c1 [4-EtAc, 2-((4-(2-Aminopyrimidin-5-yl)-1H-imidazol-1-yl)methoxy)ethyl propionate] | > 100 | – |
| COc1ncncc1-c1cn(COCCOC(=O)C(C)C)cn1 [3-^iPrAc, 2-((4-(4-Methoxypyrimidin-5-yl)-1H-imidazol-1-yl)methoxy)ethyl isobutyrate] | 38.3 ± 28.2 | – |
| CCC(=O)OCCOCn1cnc(-c2cnc(N)nc2OC)c1 [1-EtAc, 2-((4-(2-Amino-4-methoxypyrimidin-5-yl)-1H-imidazol-1-yl)methoxy)ethyl propionate] | 62.2 ± 19 | – |
| COc1ncc(-c2cn(COCCOC(=O)C(C)C)cn2)c(OC)n1 [2-^iPrAc, 2-((4-(2,4-Dimethoxypyrimidin-5-yl)-1H-imidazol-1-yl)methoxy)ethyl isobutyrate] | 32 ± 9.12 | – |
| COc1ncncc1-c1cn(COCCOC(C)=O)cn1 [3-Ac, 2-((4-(4-Methoxypyrimidin-5-yl)-1H-imidazol-1-yl)methoxy)ethyl acetate] | 35.4 ± 20.4 | – |
| CC(C)(C)C(=O)OCCOCn1cnc(-c2cnc(N)nc2)c1 [4-^tBuAc, 2-((4-(2-Aminopyrimidin-5-yl)-1H-imidazol-1-yl)methoxy)ethyl pivalate] | 34.4 ± 20 | – |
| CCC(=O)OCCOCn1cnc(-c2cncnc2OC)c1 [3-EtAc, 2-((4-(4-Methoxypyrimidin-5-yl)-1H-imidazol-1-yl)methoxy)ethyl propionate] | 51.9 ± 19.6 | – |
| COc1ncc(-c2cn(COCCOC(=O)C(C)(C)C)cn2)c(OC)n1 [2-^tBuAc, 2-((4-(2,4-Dimethoxypyrimidin-5-yl)-1H-imidazol-1-yl)methoxy)ethyl pivalate] | 81.3 ± 10.2 | – |
| CC(C)C(=O)OCCOCn1cnc(-c2cncnc2N)c1 [5-^iPrAc, 2-((4-(4-Aminopyrimidin-5-yl)-1H-imidazol-1-yl)methoxy)ethyl isobutyrate] | > 100 | – |
| CCC(=O)OCCOCn1cnc(-c2cncnc2N)c1 [5-EtAc, 2-((4-(4-Aminopyrimidin-5-yl)-1H-imidazol-1-yl)methoxy)ethyl propionate] | > 100 | – |
| COc1nc(N)ncc1-c1cn(COCCOC(C)=O)cn1 [1-Ac] | > 100 | activity against EBOV (in words) (Ebola virus (EBOV)): not active against EBOV |
| CC(=O)OCCOCn1cnc(-c2cncnc2N)c1 [5-Ac, 2-((4-(4-Aminopyrimidin-5-yl)-1H-imidazol-1-yl)methoxy)ethyl acetate] | > 100 | – |
| COc1ncc(-c2cn(COCCO)cn2)c(OC)n1 [compound 2] | 23.4 ± 20.3 | – |
| CC(C)(C)C(=O)OCCOCn1cnc(-c2cncnc2N)c1 [5-^tBuAc, 2-((4-(4-Aminopyrimidin-5-yl)-1H-imidazol-1-yl)methoxy)ethyl pivalate] | 72.3 ± 18.7 | – |
| COc1nc(N)ncc1-c1cn(COCCOC(=O)C(C)C)cn1 [1-^iPrAc, 2-((4-(2-Amino-4-methoxypyrimidin-5-yl)-1H-imidazol-1-yl)methoxy)ethyl isobutyrate] | > 100 | – |
| COc1ncc(-c2cn(COCCOC(C)=O)cn2)c(OC)n1 [2-Ac] | 16.3 ± 11.5 | – |
| CCC(=O)OCCOCn1cnc(-c2cnc(OC)nc2OC)c1 [2-EtAc, 2-((4-(2,4-Dimethoxypyrimidin-5-yl)-1H-imidazol-1-yl)methoxy)ethyl propionate] | > 100 | – |
| COc1ncncc1-c1cn(COCCO)cn1 [compound 3, 2-((4-(4-Methoxypyrimidin-5-yl)-1H-imidazol-1-yl)methoxy)ethan-1-ol] | 78.9 ± 17.1 | – |
| COc1nc(N)ncc1-c1cn(COCCO)cn1 [compound 1] | 1.49 ± 0.98 | antiviral activity against coronaviruses (coronaviruses): low micromolar activity; antiviral activity against filoviruses (filoviruses): low micromolar activity; antiviral activity against flaviviruses (flaviviruses): low micromolar activity |
| COc1nc(N)ncc1-c1cn(COCCOC(=O)C(C)(C)C)cn1 [1-^tBuAc, 2-((4-(2-Amino-4-methoxypyrimidin-5-yl)-1H-imidazol-1-yl)methoxy)ethyl pivalate] | 7.21 ± 1.85 | – |
| Nc1ncncc1-c1cn(COCCO)cn1 [compound 5, 2-((4-(4-Aminopyrimidin-5-yl)-1H-imidazol-1-yl)methoxy)ethan-1-ol] | > 100 | activity against EBOV (in words) (Ebola virus (EBOV)): did not display any activity against EBOV |
